The target of one assay is T1, Glucocorticoid receptor (Homo sapiens, UniProt P04150).
T1 sequence (P04150 whole entry): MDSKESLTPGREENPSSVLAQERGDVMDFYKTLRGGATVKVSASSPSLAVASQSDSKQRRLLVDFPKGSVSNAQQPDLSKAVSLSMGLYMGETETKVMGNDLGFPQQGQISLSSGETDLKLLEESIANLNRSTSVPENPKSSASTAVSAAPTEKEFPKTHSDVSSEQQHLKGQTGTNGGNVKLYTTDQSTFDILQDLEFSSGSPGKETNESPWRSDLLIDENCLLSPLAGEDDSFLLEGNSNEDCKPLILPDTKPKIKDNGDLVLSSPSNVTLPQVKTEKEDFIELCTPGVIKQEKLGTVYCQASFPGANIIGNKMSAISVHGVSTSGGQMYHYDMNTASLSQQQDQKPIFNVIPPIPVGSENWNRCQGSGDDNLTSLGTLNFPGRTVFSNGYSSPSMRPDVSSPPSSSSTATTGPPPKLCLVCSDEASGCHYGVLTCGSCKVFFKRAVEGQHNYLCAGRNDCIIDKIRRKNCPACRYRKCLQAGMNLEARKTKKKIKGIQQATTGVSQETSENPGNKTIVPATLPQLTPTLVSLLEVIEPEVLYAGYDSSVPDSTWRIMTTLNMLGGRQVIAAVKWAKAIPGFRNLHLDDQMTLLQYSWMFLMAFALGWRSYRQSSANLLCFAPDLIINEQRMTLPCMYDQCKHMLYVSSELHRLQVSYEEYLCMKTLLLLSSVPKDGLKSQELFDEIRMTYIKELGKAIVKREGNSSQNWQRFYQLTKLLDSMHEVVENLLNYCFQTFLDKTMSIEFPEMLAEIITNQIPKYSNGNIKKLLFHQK

The target in another assay is T2, B2 bradykinin receptor (Homo sapiens, UniProt P30411).
T2 sequence (P30411 whole entry): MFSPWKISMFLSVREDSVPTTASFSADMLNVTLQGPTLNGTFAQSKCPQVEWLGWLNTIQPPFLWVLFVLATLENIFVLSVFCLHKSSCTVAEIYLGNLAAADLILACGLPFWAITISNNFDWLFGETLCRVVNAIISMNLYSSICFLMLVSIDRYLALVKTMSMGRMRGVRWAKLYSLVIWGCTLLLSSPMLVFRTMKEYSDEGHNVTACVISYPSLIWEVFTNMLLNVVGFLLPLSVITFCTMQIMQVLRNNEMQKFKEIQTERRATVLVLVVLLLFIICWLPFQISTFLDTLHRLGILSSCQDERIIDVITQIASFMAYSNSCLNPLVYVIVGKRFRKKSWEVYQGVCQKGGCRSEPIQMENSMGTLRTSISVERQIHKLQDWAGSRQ

In another assay the target is T3, Progesterone receptor (Homo sapiens, UniProt P06401).
T3 sequence (P06401 whole entry): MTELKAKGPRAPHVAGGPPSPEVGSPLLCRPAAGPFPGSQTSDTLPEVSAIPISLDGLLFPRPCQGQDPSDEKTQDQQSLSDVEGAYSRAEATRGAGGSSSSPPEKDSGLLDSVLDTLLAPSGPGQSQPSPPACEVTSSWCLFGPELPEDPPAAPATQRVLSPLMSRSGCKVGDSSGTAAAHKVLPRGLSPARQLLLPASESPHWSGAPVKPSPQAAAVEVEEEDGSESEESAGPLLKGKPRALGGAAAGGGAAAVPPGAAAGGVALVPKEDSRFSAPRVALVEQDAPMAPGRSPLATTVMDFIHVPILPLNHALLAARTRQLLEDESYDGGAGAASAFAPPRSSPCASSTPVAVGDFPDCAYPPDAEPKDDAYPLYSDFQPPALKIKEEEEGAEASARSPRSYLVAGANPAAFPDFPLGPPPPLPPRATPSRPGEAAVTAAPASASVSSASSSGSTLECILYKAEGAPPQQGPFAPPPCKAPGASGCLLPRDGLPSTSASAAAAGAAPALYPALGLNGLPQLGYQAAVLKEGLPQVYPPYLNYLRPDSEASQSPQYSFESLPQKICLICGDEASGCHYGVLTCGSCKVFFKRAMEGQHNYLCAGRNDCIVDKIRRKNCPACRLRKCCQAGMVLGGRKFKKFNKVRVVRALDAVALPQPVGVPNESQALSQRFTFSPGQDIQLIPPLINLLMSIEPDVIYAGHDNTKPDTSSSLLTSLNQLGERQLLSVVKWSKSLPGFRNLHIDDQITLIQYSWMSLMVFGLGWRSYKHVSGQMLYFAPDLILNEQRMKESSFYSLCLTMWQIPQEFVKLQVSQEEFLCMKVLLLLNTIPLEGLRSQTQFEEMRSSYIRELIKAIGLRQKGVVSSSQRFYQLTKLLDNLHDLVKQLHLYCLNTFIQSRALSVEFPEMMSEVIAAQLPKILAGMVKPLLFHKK
It is filed as functional.

The target in assay [1] is Vascular endothelial growth factor receptor 2 (Homo sapiens, UniProt P35968). It is filed as functional.
Another assay has as its target Acetylcholinesterase (Homo sapiens, UniProt P22303). The class given is functional.
Assay [2] has as its target T4, Alpha-1A adrenergic receptor (Homo sapiens, UniProt P35348).
T4 sequence (P35348 whole entry): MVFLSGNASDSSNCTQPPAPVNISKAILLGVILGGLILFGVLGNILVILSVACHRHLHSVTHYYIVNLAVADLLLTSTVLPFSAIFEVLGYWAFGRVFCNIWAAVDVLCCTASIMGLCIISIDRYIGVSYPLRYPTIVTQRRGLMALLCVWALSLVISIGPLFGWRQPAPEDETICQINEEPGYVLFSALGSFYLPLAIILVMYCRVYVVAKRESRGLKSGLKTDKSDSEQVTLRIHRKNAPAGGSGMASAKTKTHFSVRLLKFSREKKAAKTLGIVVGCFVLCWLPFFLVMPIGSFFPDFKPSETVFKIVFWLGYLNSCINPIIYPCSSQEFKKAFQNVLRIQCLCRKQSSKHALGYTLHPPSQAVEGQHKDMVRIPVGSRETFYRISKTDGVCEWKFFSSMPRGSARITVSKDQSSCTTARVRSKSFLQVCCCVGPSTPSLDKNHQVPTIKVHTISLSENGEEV
The class given is functional, cell-based.
Note: assay procedure not described here.

Vascular endothelial growth factor receptor 2, sequence (P35968 whole entry): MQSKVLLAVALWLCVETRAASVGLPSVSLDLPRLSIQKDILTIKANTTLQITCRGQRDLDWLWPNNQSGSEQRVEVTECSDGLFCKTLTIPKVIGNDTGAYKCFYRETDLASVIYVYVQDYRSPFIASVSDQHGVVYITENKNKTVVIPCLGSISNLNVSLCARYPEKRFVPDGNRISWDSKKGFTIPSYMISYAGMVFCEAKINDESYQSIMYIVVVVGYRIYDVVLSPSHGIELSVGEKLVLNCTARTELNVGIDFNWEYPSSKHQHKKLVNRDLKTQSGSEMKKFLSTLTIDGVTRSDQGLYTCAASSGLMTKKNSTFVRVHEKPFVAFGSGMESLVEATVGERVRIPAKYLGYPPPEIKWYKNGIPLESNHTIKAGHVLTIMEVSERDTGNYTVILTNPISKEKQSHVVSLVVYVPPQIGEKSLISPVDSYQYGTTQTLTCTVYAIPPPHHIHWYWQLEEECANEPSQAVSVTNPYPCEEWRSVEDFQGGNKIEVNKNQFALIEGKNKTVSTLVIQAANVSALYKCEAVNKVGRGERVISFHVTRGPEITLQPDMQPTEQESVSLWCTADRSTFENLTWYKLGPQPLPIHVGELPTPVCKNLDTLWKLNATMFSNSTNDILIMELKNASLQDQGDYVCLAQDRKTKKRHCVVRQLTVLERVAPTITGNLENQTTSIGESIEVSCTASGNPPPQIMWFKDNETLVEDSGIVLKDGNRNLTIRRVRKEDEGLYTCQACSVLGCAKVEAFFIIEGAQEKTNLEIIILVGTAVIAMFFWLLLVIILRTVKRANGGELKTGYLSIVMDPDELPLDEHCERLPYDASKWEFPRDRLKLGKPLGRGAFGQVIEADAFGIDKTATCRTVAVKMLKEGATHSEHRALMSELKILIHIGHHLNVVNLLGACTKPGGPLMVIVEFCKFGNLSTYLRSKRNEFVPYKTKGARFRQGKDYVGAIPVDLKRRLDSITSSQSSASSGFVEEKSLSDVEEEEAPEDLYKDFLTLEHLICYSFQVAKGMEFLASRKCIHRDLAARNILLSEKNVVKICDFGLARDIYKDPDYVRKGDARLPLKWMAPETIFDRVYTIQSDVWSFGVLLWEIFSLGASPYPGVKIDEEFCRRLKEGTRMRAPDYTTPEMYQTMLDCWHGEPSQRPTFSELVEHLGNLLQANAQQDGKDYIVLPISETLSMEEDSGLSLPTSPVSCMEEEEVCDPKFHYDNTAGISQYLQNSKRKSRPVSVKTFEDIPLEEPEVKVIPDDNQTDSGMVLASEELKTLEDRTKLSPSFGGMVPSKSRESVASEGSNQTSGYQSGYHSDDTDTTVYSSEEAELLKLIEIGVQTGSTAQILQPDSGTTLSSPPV
Acetylcholinesterase, sequence (P22303 whole entry): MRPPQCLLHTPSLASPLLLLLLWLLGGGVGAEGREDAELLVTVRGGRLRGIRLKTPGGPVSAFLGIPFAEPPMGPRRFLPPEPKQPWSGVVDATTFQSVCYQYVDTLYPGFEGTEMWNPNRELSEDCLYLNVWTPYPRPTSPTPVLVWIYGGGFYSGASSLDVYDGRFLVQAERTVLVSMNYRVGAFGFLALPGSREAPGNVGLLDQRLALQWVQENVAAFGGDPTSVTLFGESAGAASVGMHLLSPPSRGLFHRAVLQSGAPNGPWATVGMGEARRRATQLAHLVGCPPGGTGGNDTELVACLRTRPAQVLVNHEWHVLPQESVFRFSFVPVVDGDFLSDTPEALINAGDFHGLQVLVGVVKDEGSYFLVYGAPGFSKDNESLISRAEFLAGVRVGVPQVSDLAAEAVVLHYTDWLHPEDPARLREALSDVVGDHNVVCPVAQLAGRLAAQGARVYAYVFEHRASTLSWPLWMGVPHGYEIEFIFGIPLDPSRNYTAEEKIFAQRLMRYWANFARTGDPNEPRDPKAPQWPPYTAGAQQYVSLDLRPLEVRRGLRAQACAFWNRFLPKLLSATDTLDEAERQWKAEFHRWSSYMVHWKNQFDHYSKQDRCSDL

As to `COC(=O)N[C@H](C(=O)N1CCC[C@H]1c1nc(-c2ccc(-c3ccc(-c4c[nH]c([C@@H]5CCCN5C(=O)[C@@H](NC(=O)OC)C(C)C)n4)cc3)cc2)c[nH]1)C(C)C`, the AC50 at Glucocorticoid receptor and at B2 bradykinin receptor was over 30 µM each time.
With `CC(N)Cc1ccccc1` (stereo unspecified) [AMPHETAMINE], the AC50 on Progesterone receptor, on Glucocorticoid receptor and at B2 bradykinin receptor was over 30 µM throughout.
With `COC(=O)N[C@H](C(=O)N[C@@H](Cc1ccccc1)[C@@H](O)CN(Cc1ccc(-c2ccccn2)cc1)NC(=O)[C@@H](NC(=O)OC)C(C)(C)C)C(C)(C)C` [ATAZANAVIR], the AC50 at Progesterone receptor, at Glucocorticoid receptor and on B2 bradykinin receptor was over 30 µM in each case.
As to `O=C1c2c(O)c(=O)ccn2N([C@@H]2c3ccccc3SCc3c2ccc(F)c3F)[C@@H]2COCCN12` [BALOXAVIR], the AC50 (in assay [1]; on Acetylcholinesterase; in assay [2]) was over 30 µM each time.
`C(=N\NC1=NCCN1)/c1c2ccccc2c(/C=N/NC2=NCCN2)c2ccccc12` [BISANTRENE]: the AC50 at Acetylcholinesterase is 3.88 µM; in assay [2], over 30 µM.
For `CC(C)NCC(O)COc1ccc(COCCOC(C)C)cc1` (stereo unspecified) [BISOPROLOL], the AC50 on Glucocorticoid receptor and at B2 bradykinin receptor was over 30 µM in each case.
As for `COc1cc(Nc2c(C#N)cnc3cc(OCCCN4CCN(C)CC4)c(OC)cc23)c(Cl)cc1Cl` [BOSUTINIB], the AC50 was 15.6 µM at Acetylcholinesterase, over 30 µM at Glucocorticoid receptor and over 30 µM at B2 bradykinin receptor.
In the case of `O=C(O)c1cc(-c2ccc(F)cc2F)ccc1O` [DIFLUNISAL], the AC50 at Progesterone receptor, at Glucocorticoid receptor and on B2 bradykinin receptor was over 10 µM throughout.
Turning to `O=C1c2ccccc2C(=O)C1C(=O)C(c1ccccc1)c1ccccc1` [DIPHENADIONE], the AC50 was over 30 µM in assay [1], over 30 µM on Acetylcholinesterase and 4.95 µM in assay [2].
As for `CCC(=O)O[C@H]1[C@H](O[C@@H]2[C@@H](C)[C@H](O[C@H]3C[C@@](C)(OC)[C@@H](O)[C@H](C)O3)[C@@H](C)C(=O)O[C@H](CC)[C@@](C)(O)[C@H](O)[C@@H](C)C(=O)[C@H](C)C[C@@]2(C)O)O[C@H](C)C[C@@H]1N(C)C` [ERYTHROMYCIN PROPIONATE], the AC50 at Acetylcholinesterase was over 30 µM.
For `C#C[C@]1(O)CC[C@H]2[C@@H]3CCc4cc(O)ccc4[C@H]3CC[C@@]21C` [ETHINYL ESTRADIOL], the AC50 was over 30 µM on Acetylcholinesterase, over 30 µM in assay [2], 0.12 µM at Glucocorticoid receptor and over 30 µM on B2 bradykinin receptor.
On to `C[C@@H]1O[C@@H]1P(=O)(O)O` [FOSFOMYCIN], for which the half-maximal activity concentration (AC50) on Progesterone receptor was over 30 µM; at Glucocorticoid receptor, over 30 µM; at B2 bradykinin receptor it was over 10 µM.
Regarding `COc1ccc2c(c1)C(=O)N(CCc1ccc(S(=O)(=O)NC(=O)NC3CCCCC3)cc1)C(=O)C2(C)C` [GLIQUIDONE], the concentration at half-maximal activity (AC50) at Progesterone receptor, on Glucocorticoid receptor and at B2 bradykinin receptor was over 30 µM throughout.
Take `NS(=O)(=O)c1cc2c(cc1Cl)NCNS2(=O)=O` [HYDROCHLOROTHIAZIDE]: the AC50 on Glucocorticoid receptor and at B2 bradykinin receptor was over 30 µM in each case.
With `NC[C@H]1O[C@H](O[C@H]2[C@H](O)[C@@H](O[C@H]3O[C@H](CO)[C@@H](O)[C@H](N)[C@H]3O)[C@H](N)C[C@@H]2N)[C@H](O)[C@@H](O)[C@@H]1O` [KANAMYCIN], the AC50 on Progesterone receptor, at Glucocorticoid receptor and on B2 bradykinin receptor was over 10 µM in each case.
Regarding `CN1CCCC(CN2c3ccccc3Sc3ccccc32)C1` (stereo unspecified) [MEPAZINE], the AC50 (in assay [1]; at Acetylcholinesterase; in assay [2]) was over 30 µM in each case.
Take `CN1C(=O)CC(C)(c2ccccc2)C1=O` (stereo unspecified) [METHSUXIMIDE]: the AC50 on Progesterone receptor, on Glucocorticoid receptor and on B2 bradykinin receptor was over 10 µM throughout.
On to `C[C@H]1C[C@@H]2[C@H]([C@@H](O)C[C@@]3(C)[C@H]2CC[C@]3(O)C(=O)CO)[C@@]2(C)C=CC(=O)C=C12` [METHYLPREDNISOLONE], for which the AC50 at B2 bradykinin receptor was over 10 µM.
For `CC(C)(C(=O)c1cccnc1)c1cccnc1` [METYRAPONE], the AC50 at Progesterone receptor, at Glucocorticoid receptor and on B2 bradykinin receptor was over 10 µM throughout.
As to `CCc1nn(CCCN2CCN(c3cccc(Cl)c3)CC2)c(=O)n1CCOc1ccccc1` [NEFAZODONE], the AC50 on B2 bradykinin receptor is over 30 µM.
Regarding `COC(=O)C1=C(C)NC(C)=C(C(=O)OCC(C)C)C1c1ccccc1[N+](=O)[O-]` (stereo unspecified) [NISOLDIPINE], the figures for the AC50 on Progesterone receptor, at Glucocorticoid receptor and on B2 bradykinin receptor were 4.9 µM, 8.8 µM and over 10 µM, respectively.
Take `NC1=NC(=O)C(c2ccccc2)O1` (stereo unspecified) [PEMOLINE]: the AC50 at Glucocorticoid receptor and at B2 bradykinin receptor was over 30 µM in each case.
Regarding `Cc1cc2c(cc1CC(=O)c1sccc1S(=O)(=O)Nc1onc(C)c1Cl)OCO2` [SITAXENTAN], the AC50 at Acetylcholinesterase is over 30 µM.
Turning to `CNC(=O)c1cc(Oc2ccc(NC(=O)Nc3ccc(Cl)c(C(F)(F)F)c3)cc2)ccn1` [SORAFENIB], the concentration at half-maximal activity (AC50) on Progesterone receptor, on Glucocorticoid receptor and on B2 bradykinin receptor was over 30 µM throughout.
Take `CC(C(=O)O)c1ccc(C(=O)c2cccs2)cc1` (stereo unspecified) [SUPROFEN]: the AC50 on Progesterone receptor, on Glucocorticoid receptor and on B2 bradykinin receptor was over 10 µM in each case.
On to `CS(=O)(=O)c1ccc([C@@H](O)[C@@H](CO)NC(=O)C(Cl)Cl)cc1` [THIAMPHENICOL], for which the AC50 (at Acetylcholinesterase; in assay [2]; on Progesterone receptor; at Glucocorticoid receptor; on B2 bradykinin receptor) was over 30 µM throughout.
As for `Cc1ccc(C(=O)c2cc(O)c(O)c([N+](=O)[O-])c2)cc1` [TOLCAPONE], the AC50 at Progesterone receptor was 1.09 µM; on Glucocorticoid receptor, over 30 µM; at B2 bradykinin receptor, over 10 µM.
Regarding `NC[C@H]1CC[C@H](C(=O)O)CC1` [TRANEXAMIC ACID], the AC50 on Progesterone receptor and at B2 bradykinin receptor was over 10 µM throughout.
With `CCCS(=O)(=O)Nc1ccc(F)c(C(=O)c2c[nH]c3ncc(-c4ccc(Cl)cc4)cc23)c1F` [VEMURAFENIB], the AC50 on Glucocorticoid receptor and on B2 bradykinin receptor was over 30 µM throughout.
`OCc1cc([C@@H](O)CNCCCCCCOCCOCc2c(Cl)cccc2Cl)ccc1O` [VILANTEROL] displayed an AC50 at Progesterone receptor of over 30 µM.

A word on the AC50: it is the concentration giving half of the maximal activity seen. Read a high AC50 as weaker potency.

The record behind these values is ChEMBL document CHEMBL5291721, “A preclinical secondary pharmacology resource illuminates target-adverse drug reaction associations of marketed drugs” (Nat Commun, 2023).
